Experimental data from US12171229B2, “Heteroaryl-triazole and heteroaryl-tetrazole compounds as pesticides” (BAYER AKTIENGESELLSCHAFT, priority 2018, dated 2024).

Assays:
Type in all cases: in vivo
[1] = test system: Boophilus microplus; assay: Boophilus microplus injection test; conditions: 20 μg/animal injected into the abdomen, adult engorged female ticks, egg deposition after 7 days; for pest or weed control at 0.02 mg: Rhipicephalus microplus, 168 h, read-out: efficacy (infertile eggs)
Experimental: Boophilus Microplus—Injection Test Solvent: dimethyl sulfoxide To produce a suitable preparation of active compound, 10 mg of active compound are dissolved in 0.5 ml solvent, and the concentrate is diluted with solvent to the desired concentration. Five adult engorged female ticks (Boophilus microplus) are injected with 1 μl compound solution into the abdomen. The ticks are transferred into replica plates and incubated in a climate chamber. After 7 days egg deposition of fertile eggs is monitored. Eggs where fertility is not visible are stored in a climate chamber till hatching after about 42 days. An efficacy of 100% means all eggs are infertile; 0% means all eggs are fertile.

[2] = test system: Diabrotica balteata; assay: Diabrotica balteata spray test; conditions: after 7 days, larvae on wheat seeds; for pest or weed control at 80 µg/disc, 250 g/ha / pest or weed control at 160 µg/disc, 500 g/ha: Diabrotica balteata, in Triticum aestivum, 168 h, read-out: efficacy (seedlings grown up); for pest or weed control at 80 µg/disc, 250 g/ha: 80 μg/well (=250 g/ha)
Experimental: Diabrotica balteata—Spray Test [table] To produce a suitable preparation of active compound, 1 part by weight of active compound is mixed with the stated amount of solvent, and the concentrate is diluted with water, containing an emulsifier concentration of 1000 ppm, to the desired concentration. Further test concentrations are prepared by dilution with emulsifier containing water. Soaked wheat seeds (Triticum aestivum) are placed in a multiple well plate filled with agar and some water and are incubated for 1 day to germinate (5 seeds per well). The germinated wheat seeds are sprayed with a test solution containing the desired concentration of the active ingredient. Afterwards each unit is infected with 10-20 larvae of the banded cucumber beetle (Diabrotica balteata). After 7 days efficacy in % is determined. 100% means all the seedlings have grown up like in the untreated, uninfected control; 0% means none of the seedlings have grown.

[3] = test system: Ctenocephalides felis; assay: Ctenocephalides felis oral test; conditions: 48 h, 100 ppm in cattle blood, after 2 days, adult unfed cat fleas
Experimental: Ctenocephalides Felis—Oral Test
Solvent: dimethyl sulfoxide
To produce a suitable preparation of active compound, 10 mg of active compound are dissolved in 0.5 ml solvent, and the concentrate is diluted with cattle blood to the desired concentration.
Approximately 20 adult unfed cat fleas (Ctenocephalides felis) are placed in flea chambers. The blood chamber, sealed with parafilm on the bottom, are filled with cattle blood supplied with compound solution and placed on the gauze covered top of the flea chamber, so that the fleas are able to suck the blood. The blood chamber is heated to 37° C. whereas the flea chamber is kept at room temperature.
After 2 days mortality in % is determined. 100% means all the fleas have been killed; 0% means none of the fleas have been killed.

[4] = test system: Spodoptera frugiperda; assay: Spodoptera frugiperda spray test; conditions: 168 h, after 7 days, larvae on maize leaf sections
Experimental: Spodoptera frugiperda—Spray Test
(§1) To produce a suitable preparation of active compound, 1 part by weight of active compound is mixed with the stated amount of solvents and is diluted with water, containing an emulsifier concentration of 1000 ppm, to the desired concentration. Further test concentrations are prepared by dilution with emulsifier containing water.
Maize (Zea mays) leaf sections are sprayed with a preparation of the active ingredient of the desired concentration. Once dry, the leaf sections are infested with fall armyworm larvae (Spodoptera frugiperda).
After 7 days mortality in % is determined. 100% means all caterpillars have been killed and 0% means none of the caterpillars have been killed.

[5] = test system: Nezara viridula; assay: Nezara viridula spray test; conditions: 96 h, after 4 days, larvae on barley plants
Experimental: Nezara viridula—Spray Test
as §1, with “solvent,” for “solvents”, “and the concentrate” for “and”
Barley plants (Hordeum vulgare) infested with larvae of the southern green stink bug (Nezara viridula) are sprayed with a test solution containing the desired concentration of the active ingredient.
After 4 days mortality in % is determined. 100% means all the stink bugs have been killed: 0% means none of the stink bugs have been killed.

SMILES	pest or weed control at 80 µg/disc, 250 g/ha [2] [%]	pest or weed control at 160 µg/disc, 500 g/ha ([2]; 160 μg/well (=500 g/ha)) [%]	mortality at 100 ppm [3] [%]	mortality at 500 g/ha [4] [%]	mortality at 500 g/ha [5] [%]	also measured
C[C@H](NC(=O)c1cc(Cl)cc(C(F)(F)F)c1)c1ncnn1-c1nnc(C(F)(F)F)s1 [Example I-017]	–	–	–	–	–	pest or weed control at 0.02 mg [1]: 90%
C[C@H](NC(=O)c1cc(Cl)cc(C(F)(F)F)c1)c1ncnn1-c1nc2ccccc2o1 [Example I-057]	100	80	90	–	–	pest or weed control at 0.02 mg [1]: 80%
C[C@H](NC(=O)c1cncc(Br)c1)c1ncnn1-c1ccc(C#N)cn1 [Example I-053]	100	100	100	100	–	pest or weed control at 0.02 mg [1]: 100%
C[C@H](NC(=O)c1cc(Cl)cc(C(F)(F)F)c1)c1ncnn1-c1nnc(-c2ccc(F)cc2)s1 [Example I-023]	–	–	–	–	–	mortality at 100 g/ha ([5]; 100 g/ha): 100%
C[C@H](NC(=O)c1cc(Cl)cc(Cl)c1)c1ncnn1-c1nccs1 [Example I-108]	–	100	–	83	–	–
C[C@H](NC(=O)c1cc(Cl)cc(C(F)(F)F)c1)c1ncnn1-c1nc(C(F)(F)F)cs1 [Example I-084]	100	100	–	–	–	–
C[C@H](NC(=O)c1cc(Cl)cc(C(F)(F)F)c1)c1ncnn1-c1ccc(OCC(F)(F)C(F)(F)F)cn1 [Example I-060]	80	–	100	100	–	mortality at 100 g/ha [4]: 100%
COc1cc(C(=O)N[C@@H](C)c2ncnn2-c2nccs2)cc(C(F)(F)F)c1 [Example I-093]	100	100	100	100	100	–
C[C@H](NC(=O)c1cc(Cl)cc(C(F)(F)F)c1)c1ncnn1-c1cccc(OCC(F)(F)F)n1 [Example I-059]	–	100	–	–	–	–
C[C@H](NC(=O)c1cc(Cl)cc(OC(F)(F)F)c1)c1ncnn1-c1ccc(NC(=O)C2(Cl)CC2)cn1 [Example I-113]	–	80	–	100	100	mortality at 100 g/ha [4]: 80%
C[C@H](NC(=O)c1cc(Cl)cc(C(F)(F)F)c1)c1ncnn1-c1ccc(OC(F)F)cn1 [Example I-029]	100	100	–	100	100	mortality at 100 g/ha [4]: 100%
C[C@H](NC(=O)c1cc(Cl)cc(C(F)(F)F)c1)c1ncnn1C1CCS(=O)(=O)C1 (single isomer, unassigned) [Example I-025]	–	–	–	–	–	efficacy (seedlings grown up) ([2]; 160 μg/well (=500 g/ha)): 80%; efficacy (infertile eggs) [1]: 100%
C[C@H](NC(=O)c1cc(Cl)cc(C(F)(F)F)c1)c1ncnn1-c1ccc(NC(=S)CC2CC2)cn1 [Example I-097]	100	100	100	100	–	–
COc1cc(C(=O)N[C@@H](C)c2ncnn2-c2ncc(F)cc2F)cc(C(F)(F)F)c1 [Example I-102]	100	–	–	–	100	–
C[C@H](NC(=O)c1cc(Cl)cc(C(F)(F)F)c1)c1ncnn1-c1cccc(S(C)(=O)=O)n1 [Example I-064]	–	–	–	–	–	pest or weed control at 0.02 mg [1]: 80%
C[C@H](NC(=O)c1cc(Cl)cc(C(F)(F)F)c1)c1ncnn1-c1ncc(Cl)s1 [Example I-090]	100	100	100	100	100	mortality at 100 g/ha [4]: 100%
